# From US20140018537A1, “GPR119 AGONIST” (NIPPON CHEMIPHAR CO., LTD., priority 2008, published 2014)
# Experiments:
# normal mice = test: Oral glucose tolerance test in normal mice; format: in vivo
# Procedure: Oral glucose tolerance is tested in normal mice.
# In this experiment, the inhibitory effect of an analyte on glycemic excursions is examined after glucose administration in normal mice. The test methods are described below.
# Male 9-week-old ICR mice, habituated to the experimental environment for two weeks, are fasted for 18 hours and used to this experiment. Mice are orally administered the analyte or vehicle (polyethylene glycol 400:ethanol:Tween 80=8:1:1). After 30 minutes, they were orally given glucose at the dose of 3 g/kg.
# Blood was collected at just before the analyte or vehicle administration (−30 minutes), immediately before glucose challenge (0 minute), 20 minutes, 40 minutes, 60 minutes, and 120 minutes after glucose ingestion to determine blood glucose levels.
# Inhibition rate (%) of the analyte versus vehicle in areas under the glycemic excursion curve between 0 and 120 min after glucose challenge is determined.
# Oral Glucose Tolerance Test in Normal Mice […]
# Blood was collected at just before the test compound or vehicle administration (−30 min), immediately before glucose challenge (0 min), 20 min, 40 min, 60 min and 120 min after glucose ingestion and then blood glucose levels were determined.
# Inhibition rate (%) of the test compound versus vehicle in areas under the glycemic excursion curve between 0 and 120 min after glucose challenge was determined.
# human GPR119 = target: T1, human GPR119 (Homo sapiens, UniProt Q8TDV5); test: Intracellular cAMP increase in human GPR119 introduced cells (HitHunter cAMP XS+ Assay); format: cell-based; conditions: for EC50: hGPR119 stable cells, intracellular cAMP; for GPR119 agonist effect (in words): hGPR119 introduced cells, cAMP
# T1 construct: expressed in transfected cells
# T1 sequence (Q8TDV5 1-335): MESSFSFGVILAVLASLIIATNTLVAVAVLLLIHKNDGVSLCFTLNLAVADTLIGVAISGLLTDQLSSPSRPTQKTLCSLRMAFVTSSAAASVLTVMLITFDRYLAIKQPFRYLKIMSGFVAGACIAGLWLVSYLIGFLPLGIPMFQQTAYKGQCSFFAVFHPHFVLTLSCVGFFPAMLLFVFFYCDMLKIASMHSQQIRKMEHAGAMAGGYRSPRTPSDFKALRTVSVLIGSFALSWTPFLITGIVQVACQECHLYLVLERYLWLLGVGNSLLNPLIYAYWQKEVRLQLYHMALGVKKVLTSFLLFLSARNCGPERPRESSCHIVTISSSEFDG
# Source text: The GPR119 agonist effect was studied by measuring the effect of an analyte on increase of intracellular amount of cAMP in human GPR119 introduced cells. The testing method is described below.
# (1) Construction of the Stable Cell Line Expressing Human G Protein-Coupled-Receptor 119 (hGPR119) Human GPR119 gene (NM 178471) is purchased from American Type Culture Collection (ATCC No. 10807349). Hind III site-added forward side primer ([…]: sequence No. 1) and Apa I site-added reverse side primer ([…]: sequence No. 2) are designed. The target gene is amplyfied by a polymerase chain reaction (PCR) method using KOD-Plus-Ver. 2 (TOYOBO #KOD-211). PCR is conducted by repeating three steps consisting of the step of 98° C.-10 seconds, the step of 55° C.-30 seconds, and the step of 68° C.-1 minute and 10 seconds in 35 cycles. The amplified PCR product is inserted into pcDNA5/FRT/TO (Invitrogen #V6520-20) plasmid. Cells, which can constantly express the target gene with tetracycline, are constructed using Flp-In T-REx-systen (invitorogen).
# (2) Measurement of Intracellular Cyclic Adenosine Monophosphate (cAMP)
# The hGPR119 introduced cells prepared in (1) are plated on a 96-well plate using Dulbecco's Modified Eagle Medium containing heat-inactived 10% fetal bovine serum. After incubation of 24 hours, tetracyclin (invitrogen #Q10019) is added to the culture medium to induce hGPR119 gene expression. After further incubation of 24 hours, the cells are stimulated with 0.5 mM 3-ISOBUTYL-1-METHYLXANTHINE (Sigma #17018) phosphate buffer containing the analyte at 37° C. for 30 minutes. The amount of the intracellular cAMP is measured by using FLUOstar Optima (BMG LABTECH) according to the protocol of HitHunter™ cAMP XS+Assay (GE Healthcare #90007503) to give the agonist activity of the analyte to the GPR119 receptor.
# (1) Construction of the Stable Cell Line Expressing Human G-Protein Coupled Receptor 119 (hGPR119) hGPR119 gene (NM 178471) was purchased from American Type Culture Collection (ATCC No. 10807349). The forward primer that was added a HindIII site ([…] (sequence number 1)), and the reverse primer that was added an ApaI site ([…] (sequence number 2)) were designed, the target gene was amplified by polymerase chain reaction (PCR) using a KOD-Plus-Ver.2 (TOYOBO #KOD-211). PCR was repeated 3 steps (98° C. for 10 sec, 55° C. for 30 sec, 68° C. for 1 min 15 sec) by 35 cycles. Amplified PCR product was inserted in pcDNA5/FRT/TO (Invitrogen #V6520-20), and the stable cell line that expresses target gene when induced with tetracycline was created using the Flp-In T-Rex system (Invitrogen).
# (2) Measuring Method of Intracellular Cyclic Adenosine Monophosphate (cAMP) hGPR119 stable cells made by above-mentioned (1) were plated on 96 well plates in Dulbecco's Modified Eagle Medium containing 10% heat-inactivated FBS. After 24 hours, the hGPR119 expression was induced by adding medium containing tetracycline (Invitrogen #Q10019) and incubating for another 24 hours. Following incubation, cells were stimulated by 0.5 mM 3-ISOBUTYL-1-METHYLXANTHINE (Sigma #17018) phosphate buffered saline containing test compound for 30 minutes at 37° C. Agonist activity of test compound to the GPR119 receptor was estimated by measuring the intracellular cAMP concentration using a Fluostar optima plate reader (BMG LABTECH) according to the manufacturer's protocol of the HitHunter™ cAMP XS+Assay (GE Healthcare #90007503).
# The examination was performed by the method similar to Example 86 (Pharmacological experiment 1)-(1), -(2).
# [1] = Table 16, tetracycline-induced, 30 minutes at 37° C.
# [2] = Table 17, method similar to Example 86
SMILES,melting point,EC50 (human GPR119; [2]),other results
"CC(C)(C)OC(=O)N1CCC(c2ccc(COc3ccc(S(C)(=O)=O)cc3)nc2)CC1 [Example 1, tert-Butyl 4-[2-(4-methanesulfonylphenoxymethyl)pyridin-5-yl]piperidine-1-carboxylate]",,,"Inhibition rate (%) (normal mice; 10 mg/kg oral, male ICR mice, glucose 3 g/kg 30 min later, area under glycemic excursion curve 0-120 min versus vehicle): 41.8%; inhibitory effect on glycemic excursions (in words) (normal mice; oral glucose tolerance test of normal mice): strong inhibitory effect; EC50 (human GPR119; [1]): 0.0268 µM; GPR119 agonist effect (in words) (human GPR119): excellent GPR119 agonist effect"
"CC(C)(C)OC(=O)N1CCC(c2ccc(COc3ccc(S(C)(=O)=O)cc3)cn2)CC1 [Example 2, tert-Butyl 4-[5-(4-methanesulfonylphenoxymethyl)pyridin-2-yl]piperidine-1-carboxylate]",140 to 142 °C,,EC50 (human GPR119; [1]): 0.606 µM; GPR119 agonist effect (in words) (human GPR119): excellent GPR119 agonist effect
"CC(C)(C)OC(=O)N1CCC(c2ccc(COc3ccc(-n4cncn4)cc3)nc2)CC1 [Example 16, tert-Butyl 4-[2-[4-(1,2,4-triazol-1-yl)phenoxymethyl]pyridin-5-yl]piperidine-1-carboxylate]",147 to 150 °C,0.129 µM,
"Cc1cc(C2CCN(C(=O)OC(C)(C)C)CC2)cnc1COc1ccc(S(C)(=O)=O)cc1 [Example 63, tert-Butyl 4-[2-(4-methanesulfonylphenoxymethyl)-3-methylpyridin-5-yl]piperidine-1-carboxylate]",130 to 132 °C,0.0284 µM,
"COc1cc(C2CCN(C(=O)OC(C)(C)C)CC2)cnc1COc1ccc(S(C)(=O)=O)cc1 [Example 67, tert-Butyl 4-[2-(4-methanesulfonylphenoxymethyl)-3-methoxypyridin-5-yl]piperidine-1-carboxylate]",153 to 154 °C,,
"CC(C)(C)OC(=O)N1CC=C(c2cnc(COc3ccc(S(C)(=O)=O)cc3)cc2Cl)CC1 [Example 76, tert-Butyl 4-[4-chloro-2-(4-methanesulfonylphenoxymethyl)pyridin-5-yl]-3,6-dihydro-2H-pyridine-1-carboxylate]",148 to 150 °C,,
"Cc1cc(C2CCN(C(=O)OC(C)(C)C)CC2)cnc1COc1ccc(S(C)(=O)=O)cc1Cl [Example 80, tert-Butyl 4-[2-(2-chloro-4-methanesulfonylphenoxymethyl)-3-methylpyridin-5-yl]piperidine-1-carboxylate]",143 to 145 °C,0.0659 µM,

# Continued, in another order:
melting point,EC50 (human GPR119; [2]),SMILES,other results
143 to 145 °C,0.137 µM,"CC(C)c1nc(N2CCC(c3ccc(COc4ccc(S(C)(=O)=O)cc4)nc3)CC2)no1 [Example 8, 5-[1-(5-Isopropyl-1,2,4-oxadiazol-3-yl)piperidin-4-yl]-2-(4-methanesulfonylphenoxymethyl)pyridine]",
114 to 115 °C,0.114 µM,"CCC(C)(C)OC(=O)N1CCC(c2ccc(COc3ccc(S(C)(=O)=O)cc3)nc2)CC1 [Example 41, 1,1-Dimethylpropyl 4-[2-(4-methanesulfonylphenoxymethyl)pyridin-5-yl]piperidine-1-carboxylate]",
185 to 187 °C,0.137 µM,"CCc1cnc(N2CCC(c3ccc(COc4ccc(S(C)(=O)=O)cc4)nc3)CC2)nc1 [Example 48, 5-Ethyl-2-[4-[2-(4-methanesulfonylphenoxymethyl)pyridin-5-yl]piperidin-1-yl]pyrimidine]",
154 to 157 °C,,"CCCCCc1cnc(N2CCC(c3ccc(COc4ccc(S(C)(=O)=O)cc4)nc3)CC2)nc1 [Example 50, 2-[4-[2-(4-Methanesulfonylphenoxymethyl)pyridin-5-yl]piperidin-1-yl]-5-pentylpyrimidine]",
129 to 131 °C,,"CCc1cnc(N2CCC(c3ccc(COc4ccc(C#N)c(F)c4)nc3)CC2)nc1 [Example 52, 2-[4-[2-(4-Cyano-3-fluorophenoxymethyl)pyridin-5-yl]piperidin-1-yl]-5-ethylpyrimidine]",
92 to 94 °C,,"CCCCCc1cnc(N2CCC(c3ccc(COc4ccc(C#N)c(F)c4)nc3)CC2)nc1 [Example 54, 2-[4-[2-(4-Cyano-3-fluorophenoxymethyl)pyridin-5-yl]piperidin-1-yl]-5-pentylpyrimidine]",
174 to 176 °C,,"CCCCCc1cnc(N2CCC(c3ccc(COc4ccc(-n5cnnn5)cc4)nc3)CC2)nc1 [Example 56, 5-Pentyl-2-[4-[2-[4-(tetrazol-1-yl)phenoxymethyl]pyridin-5-yl]piperidin-1-yl]pyrimidine]",
